Experiments:
[1] = biological target: Beta-1 adrenergic receptor (Homo sapiens, UniProt P08588); test: DRUGMATRIX: Adrenergic beta1 radioligand binding (ligand: [125I] Cyanopindolol); type: cell membranes, CHO-K1, Membrane; settings: cho-k1; Not Active = under 50% inhibition at 10 µM
[2] = biological target: T1, Type-2 angiotensin II receptor (Homo sapiens, UniProt P50052); type: cell-based; settings: cho-k1; also: in other assays of this panel Not Active means under 50% inhibition at 10 µM
T1 sequence (P50052 whole entry): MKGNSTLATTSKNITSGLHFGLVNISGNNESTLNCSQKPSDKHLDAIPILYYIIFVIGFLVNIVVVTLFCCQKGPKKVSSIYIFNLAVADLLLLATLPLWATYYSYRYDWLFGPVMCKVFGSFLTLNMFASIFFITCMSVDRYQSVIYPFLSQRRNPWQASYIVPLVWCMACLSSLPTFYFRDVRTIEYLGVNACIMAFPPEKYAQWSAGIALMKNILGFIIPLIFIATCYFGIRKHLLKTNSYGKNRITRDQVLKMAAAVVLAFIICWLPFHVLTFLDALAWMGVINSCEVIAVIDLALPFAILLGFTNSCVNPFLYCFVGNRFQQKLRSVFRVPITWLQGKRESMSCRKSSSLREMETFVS

Calcitonin receptor = biological target: T2, Calcitonin receptor (Homo sapiens, UniProt P30988); type: cell membranes, Membrane; settings: t47d; also: in other assays of this panel Not Active means under 50% inhibition at 10 µM
T2 sequence (P30988 whole entry): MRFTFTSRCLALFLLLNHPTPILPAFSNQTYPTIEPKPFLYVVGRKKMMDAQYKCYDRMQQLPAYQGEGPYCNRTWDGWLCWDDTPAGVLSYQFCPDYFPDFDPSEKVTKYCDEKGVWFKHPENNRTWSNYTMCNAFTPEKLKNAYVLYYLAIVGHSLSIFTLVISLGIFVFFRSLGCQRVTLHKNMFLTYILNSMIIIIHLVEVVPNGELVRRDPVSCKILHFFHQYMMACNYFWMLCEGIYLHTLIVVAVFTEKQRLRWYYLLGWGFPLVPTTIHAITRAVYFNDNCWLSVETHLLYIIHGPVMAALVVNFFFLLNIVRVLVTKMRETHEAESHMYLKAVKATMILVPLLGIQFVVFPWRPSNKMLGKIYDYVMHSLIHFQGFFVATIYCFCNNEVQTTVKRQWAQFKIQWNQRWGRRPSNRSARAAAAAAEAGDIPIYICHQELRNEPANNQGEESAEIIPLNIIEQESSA

[3] = DRUGMATRIX: Tumor Necrosis Factor (TNF), Non-Selective radioligand binding (ligand: [125I] TNF-alpha); type: cell membranes, Membrane; settings: u-937; Not Active = under 50% inhibition at 10 µM
Vasopressin V1a receptor = Vasopressin V1a receptor (Homo sapiens, UniProt P37288); type: cell membranes, Membrane; settings: hek293; also: in other assays of this panel Not Active means under 50% inhibition at 10 µM
Cannabinoid receptor 1 = Cannabinoid receptor 1 (Homo sapiens, UniProt P21554); type: cell membranes, Membrane; settings: chem-1; also: in other assays of this panel Not Active means under 50% inhibition at 10 µM
[4] = biological target: 5-hydroxytryptamine receptor 1B (Rattus norvegicus, UniProt P28564); type: cell membranes, Wistar, Cerebral cortex, Membrane; also: in other assays of this panel Not Active means under 50% inhibition at 10 µM
Cytochrome P450 3A4 = Cytochrome P450 3A4 (Homo sapiens, UniProt P08684); settings: bti-tn-5b1-4; also: in other assays of this panel Not Active means under 50% inhibition at 10 µM
Sequence of Cytochrome P450 3A4 (P08684 whole entry): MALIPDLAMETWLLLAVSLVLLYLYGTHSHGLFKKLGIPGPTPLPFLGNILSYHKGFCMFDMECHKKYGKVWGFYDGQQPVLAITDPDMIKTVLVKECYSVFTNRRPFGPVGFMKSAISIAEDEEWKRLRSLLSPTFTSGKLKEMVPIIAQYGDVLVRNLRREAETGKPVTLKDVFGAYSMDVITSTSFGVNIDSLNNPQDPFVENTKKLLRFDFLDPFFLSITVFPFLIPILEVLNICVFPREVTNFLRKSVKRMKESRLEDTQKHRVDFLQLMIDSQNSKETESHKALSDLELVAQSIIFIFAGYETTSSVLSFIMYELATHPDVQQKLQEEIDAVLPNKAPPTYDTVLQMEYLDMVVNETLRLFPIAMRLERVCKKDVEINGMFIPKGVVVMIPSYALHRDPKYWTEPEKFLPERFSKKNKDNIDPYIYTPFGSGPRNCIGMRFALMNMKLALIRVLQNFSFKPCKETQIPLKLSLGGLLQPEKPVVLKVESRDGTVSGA

Sequence of Vasopressin V1a receptor (P37288 whole entry): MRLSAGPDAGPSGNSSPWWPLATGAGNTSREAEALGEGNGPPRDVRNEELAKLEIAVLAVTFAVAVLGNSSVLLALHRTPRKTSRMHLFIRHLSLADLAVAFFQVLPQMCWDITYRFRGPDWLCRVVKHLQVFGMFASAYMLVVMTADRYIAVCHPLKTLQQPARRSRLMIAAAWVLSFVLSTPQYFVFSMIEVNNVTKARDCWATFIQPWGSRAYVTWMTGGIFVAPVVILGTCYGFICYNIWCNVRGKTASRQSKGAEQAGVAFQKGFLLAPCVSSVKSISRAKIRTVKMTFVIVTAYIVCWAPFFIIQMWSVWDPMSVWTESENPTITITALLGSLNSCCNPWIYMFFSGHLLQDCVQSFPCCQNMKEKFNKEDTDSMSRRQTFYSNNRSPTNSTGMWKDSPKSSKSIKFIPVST
Sequence of Cannabinoid receptor 1 (P21554 whole entry): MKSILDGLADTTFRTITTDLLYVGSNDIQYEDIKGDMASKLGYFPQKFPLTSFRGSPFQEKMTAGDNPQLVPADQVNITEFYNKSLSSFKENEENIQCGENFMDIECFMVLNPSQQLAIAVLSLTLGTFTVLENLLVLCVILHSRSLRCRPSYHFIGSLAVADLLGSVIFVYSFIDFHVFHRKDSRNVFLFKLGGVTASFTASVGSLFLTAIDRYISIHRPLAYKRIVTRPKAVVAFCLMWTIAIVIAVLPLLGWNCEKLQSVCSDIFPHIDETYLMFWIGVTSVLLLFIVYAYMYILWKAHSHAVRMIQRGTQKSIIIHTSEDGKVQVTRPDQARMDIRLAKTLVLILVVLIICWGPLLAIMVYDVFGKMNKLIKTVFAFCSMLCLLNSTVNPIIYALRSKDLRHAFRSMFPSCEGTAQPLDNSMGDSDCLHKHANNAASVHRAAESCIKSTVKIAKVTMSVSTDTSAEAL
Sequence of 5-hydroxytryptamine receptor 1B (P28564 whole entry): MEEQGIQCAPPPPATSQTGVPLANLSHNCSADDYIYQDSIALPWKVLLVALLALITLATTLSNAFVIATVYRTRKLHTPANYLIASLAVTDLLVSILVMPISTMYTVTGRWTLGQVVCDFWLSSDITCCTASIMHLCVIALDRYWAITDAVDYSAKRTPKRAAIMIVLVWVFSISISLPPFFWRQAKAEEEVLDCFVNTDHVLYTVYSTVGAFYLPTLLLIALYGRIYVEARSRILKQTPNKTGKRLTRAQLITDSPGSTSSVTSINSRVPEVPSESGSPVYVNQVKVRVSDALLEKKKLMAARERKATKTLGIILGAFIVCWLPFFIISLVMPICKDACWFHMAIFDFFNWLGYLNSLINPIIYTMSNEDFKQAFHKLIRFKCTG
Sequence of Beta-1 adrenergic receptor (P08588 whole entry): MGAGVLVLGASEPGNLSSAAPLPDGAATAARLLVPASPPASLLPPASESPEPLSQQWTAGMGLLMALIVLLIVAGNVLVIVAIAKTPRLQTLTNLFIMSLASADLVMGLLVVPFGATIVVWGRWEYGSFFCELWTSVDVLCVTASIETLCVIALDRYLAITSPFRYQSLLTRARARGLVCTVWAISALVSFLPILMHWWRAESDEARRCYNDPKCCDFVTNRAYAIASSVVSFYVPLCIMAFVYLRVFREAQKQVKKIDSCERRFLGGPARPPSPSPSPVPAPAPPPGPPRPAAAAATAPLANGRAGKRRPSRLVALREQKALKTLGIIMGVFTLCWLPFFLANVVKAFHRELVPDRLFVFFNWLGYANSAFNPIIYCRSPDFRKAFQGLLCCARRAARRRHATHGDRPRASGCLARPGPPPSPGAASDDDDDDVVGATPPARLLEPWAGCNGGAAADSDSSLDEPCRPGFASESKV

CADMIUM ACETATE
Not Active: IC50 [1] | Ki [1] | IC50 [2] | Ki [2] | IC50 (Calcitonin receptor) | Ki (Calcitonin receptor) | IC50 [3] | Ki [3] | IC50 (Vasopressin V1a receptor) | Ki (Vasopressin V1a receptor) | IC50 (Cannabinoid receptor 1) | Ki (Cannabinoid receptor 1) | IC50 [4] | Ki [4] | IC50 (Cytochrome P450 3A4) | Ki (Cytochrome P450 3A4)

LEAD (II) ACETATE
Not Active: IC50 [1] | Ki [1] | IC50 [2] | Ki [2] | IC50 (Calcitonin receptor) | Ki (Calcitonin receptor) | IC50 [3] | Ki [3] | IC50 (Vasopressin V1a receptor) | Ki (Vasopressin V1a receptor) | IC50 (Cannabinoid receptor 1) | Ki (Cannabinoid receptor 1) | IC50 [4] | Ki [4] | IC50 (Cytochrome P450 3A4) | Ki (Cytochrome P450 3A4)

LIPOPOLYSACCHARIDE E. COLI O55:B5
Not Active: IC50 [1] | Ki [1] | IC50 [2] | Ki [2] | IC50 (Calcitonin receptor) | Ki (Calcitonin receptor) | IC50 [3] | Ki [3] | IC50 (Vasopressin V1a receptor) | Ki (Vasopressin V1a receptor) | IC50 (Cannabinoid receptor 1) | Ki (Cannabinoid receptor 1) | IC50 [4] | Ki [4] | IC50 (Cytochrome P450 3A4) | Ki (Cytochrome P450 3A4)
